Results reported in patent US10053434B2, “Histone deacetylase inhibitors and compositions and methods of use thereof” (CHDI Foundation, Inc., priority 2015, dated 2018).
Where a name gives a salt, the structure may show the parent alone.

Experiments:
[1] = system: Cellular Class IIa HDAC activity; assay: Inhibition of cellular Class IIa HDAC activity; Cell (Lys-TFA) substrate, Jurkat E6-1 cells; type: cell-based; conditions: Boc-Lys(TFA)-AMC substrate
Description: Example 29: Analysis of Inhibition of Cellular Class IIa HDAC Activity with Class IIa Histone Deacetylase (HDAC) Inhibitors; Cell (Lys-TFA) Substrate
(§1) The potency of Class IIa Histone Deacetylase (HDAC) inhibitors was quantified by measuring the cellular histone deacetylase enzymatic activity using the fluorogenic substrate, Boc-Lys(TFA)-AMC. After penetration in Jurkat E6-1 cells, the substrate was deacetylated to Boc-Lys-AMC. After cell lysis and cleavage by trypsin, the fluorophore AMC was released from the deacetylated substrate only. The fluorescence of the sample was directly related to the histone deacetylase activity in the sample.
Jurkat E6.1 Cell Culture and Plating.
(§2) Jurkat E6.1 cells were cultured according to standard cell culture protocols in Jurkat E6.1 Growth Media (RPMI without phenol red, 10% FBS, 10 mM HEPES, and 1 mM Sodium Pyruvate). Jurkat E6.1 cells were counted using a Coulter Counter and resuspended in Jurkat E6.1 growth media at a concentration of 75,000 cells/35 μL. 35 μL or 75,000 cells was seeded into Greiner microtitre assay plates. The plates were then incubated at 37° C. and 5% CO2 while other assay components were being prepared.
(§3) Serially Dilute HDAC Inhibitor Compounds.
(§4) Serial dilutions of the HDAC inhibitors and control reference compound (1-(5-(3-((4-(1,3,4-oxadiazol-2-yl)phenoxy)methyl)-1,2,4-oxadiazol-5-yl)thiophen-2-yl)-2,2,2-trifluoroethanone) were made by first resuspending the lyophilized compound to a final concentration of 10 mM in 100% DMSO. Stocks of 70 μL aliquots of the 10 mM compound in DMSO were prepared and stored at −20° C. From one stock aliquot of each tested compound and the reference compound, a 16-point serial dilution was prepared according to Table 1 using a 125 μL 16-channel Matrix multi-channel pipette.
(§5) 2 μL (200×) of each diluted solution and each control (full activity: 100% DMSO alone or full inhibition 1 mM) was stamped into V-bottom polypropylene 384-well compound plates using either the Bravo, Janus, or 12.5 μL 16-channel Matrix multi-channel pipette. Each well with the 200× compound solution was diluted 1:20 by the addition of 38 μL Jurkat assay buffer+DMSO (9.5% DMSO, RPMI without phenol red, 0.09% FBS, 9 mM Hepes, and 0.9 mM Sodium Pyruvate equilibrated to r.t.)
Prepare 5× (500 μM) Boc-Lys(TFA)-AMC Substrate.
(§6) 5× (500 μM) substrate was prepared just prior to the addition to the assay. The 5× substrate was prepared by diluting a 100 mM Boc-Lys(TFA)-AMC in DMSO solution 1:200 by adding it drop-wise to Jurkat assay medium (RPMI without phenol red, 0.1% FBS, 10 mM Hepes, and 1 mM Sodium Pyruvate equilibrated to 37° C.) while vortexing at slow speed to prevent precipitation.
(§7) 10 mL of 3× lysis buffer was prepared with 8.8 mL of 3× stock lysis buffer (50 mM Tris-HCl, pH 8.0, 137 mM NaCl, 2.7 mM KCl, 1 mM MgCl2, 1% Nonidet P40 Substitute equilibrated to r.t.) and 1.2 mL of 3 mg/mL Trypsin equilibrated to r.t.
(§8) 5 μL of each solution of 1:20 diluted compound from above was transferred to the Greiner microtitre assay plates with 75,000 cells/well using the Bravo. Cells were then incubated for 2 hours at 37° C. and 5% CO2. The assay was then started by adding 10 μL of 5× (500 μM) substrate to the assay plate using either the Bravo or 16-channel Matrix multi-channel pipette. The cells were then incubated for 3 hours at 37° C. and 5% CO2. Next, 25 μL of 3× lysis buffer was added to each well using either the 125 μL 16 channel pipette or the Bravo. The assay plate was then incubated overnight (15-16 hours) at 37° C. and 5% CO2. The following day, the plates were shaken on an orbital shaker for 1 minute at 900 rpm. Finally the top read fluorescence (Excitation: 355 nm, Emission: 460 nm) was measured using PerkinElmer EnVision.

[2] = target: human catalytic domain HDAC4 protein (amino acids 648-1032) (Homo sapiens (Human), UniProt P56524); assay: HDAC4 catalytic domain enzymatic activity, fluorogenic substrate Boc-Lys(TFA)-AMC; conditions: read-out: HDAC4 Biochemical IC50
human catalytic domain HDAC4 protein (amino acids 648-1032), sequence (P56524 648-1032): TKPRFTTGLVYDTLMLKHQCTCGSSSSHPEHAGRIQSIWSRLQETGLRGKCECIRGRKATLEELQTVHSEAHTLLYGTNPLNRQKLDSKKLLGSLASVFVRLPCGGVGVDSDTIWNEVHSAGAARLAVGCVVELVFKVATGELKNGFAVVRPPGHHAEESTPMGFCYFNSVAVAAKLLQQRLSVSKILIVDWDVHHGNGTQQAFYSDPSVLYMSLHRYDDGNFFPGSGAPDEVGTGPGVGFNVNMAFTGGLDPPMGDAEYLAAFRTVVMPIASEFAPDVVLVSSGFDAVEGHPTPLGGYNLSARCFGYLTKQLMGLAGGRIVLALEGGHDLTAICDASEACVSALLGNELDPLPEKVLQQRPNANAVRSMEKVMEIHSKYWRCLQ
Description: Example 25: Analysis of Inhibition of HDAC4 with Class IIa Histone Deacetylase (HDAC) Inhibitors
The potency of Class IIa Histone Deacetylase (HDAC) inhibitors was quantified by measuring the Histone Deacetylase 4 (HDAC4) catalytic domain enzymatic activity using the fluorogenic substrate, Boc-Lys(TFA)-AMC. The substrate was deacetylated to Boc-Lys-AMC by HDAC4. […] The fluorescence of the sample was directly related to the histone deacetylase activity in the sample.
as §3
as §4, with “dimethyl sulfoxide (DMSO).” for “DMSO.”, “60” for “70”, “pipette (Matrix Technologies Ltd).” for “pipette.”
2 μL (200×) of each diluted solution and each control (full activity: 100% DMSO alone or full inhibition 1 mM) was stamped into V-bottomed polypropylene 384-well compound plates using either the Bravo (384-well head from Agilent) or 12.5 μL 16-channel Matrix multi-channel pipette (Matrix Technologies Ltd). Each well with the 200× compound solution was diluted 1:20 by the addition of 38 μL assay buffer+DMSO (10.5% DMSO, 45 mM Tris-HCl, 123 mM NaCl, 2.4 mM KCl, and 0.9 mM MgCl2 at pH 8.0 and equilibrated to r.t.).
Prepare HDAC4 Catalytic Domain Enzyme (0.2 μg/mL).
The HDAC4 catalytic domain enzyme was human catalytic domain HDAC4 protein (amino acids 648-1032) with a C-terminal 6× histidine tag, produced by BioFocus. A working solution of enzyme was prepared from a […] stock aliquot of HDAC4 catalytic domain (thawed on ice) diluted to 0.2 μg/mL with assay buffer (50 mM Tris-HCl, 137 mM NaCl, 2.7 mM KCl, and 1 mM MgCl2 at pH 8 and equilibrated to r.t.) just prior to the addition of the enzyme to the assay.
Prepare 5× (50 μM) Boc-Lys(TFA)-AMC Substrate.
5× (50 μM) substrate was prepared just prior to the addition to the assay. A 1 mM substrate stock was made by diluting a 100 mM Boc-Lys(TFA)-AMC in DMSO solution 1:100 by adding it drop-wise to assay buffer (equilibrated to r.t.) while vortexing at slow speed to prevent precipitation. The 5× substrate was prepared by diluting the 1 mM substrate solution 1:20 by adding it drop-wise to assay buffer (equilibrated to r.t.) while vortexing at slow speed to prevent precipitation.
Prepare 3× (30 μM) Developer/Stop Solution.
3× (30 μM) Developer/Stop Solution was prepared just prior to addition to the plate by diluting a stock solution of 10 mM reference compound 1:333 in 25 mg/mL trypsin (PAA Laboratories Ltd.) equilibrated to r.t.
5 μL of each solution of 1:20 diluted compound from above was transferred to a clear bottomed, black, 384-well assay plate using the Bravo or the Janus (384-well MDT head from Perkin Elmer). Using a 16-channel Matrix multi-channel pipette, 35 μL of the working solution of HDAC4 catalytic domain enzyme (0.2 μg/mL in assay buffer) was transferred to the assay plate. The assay was then started by adding 10 μL of 5× (50 μM) substrate to the assay plates using either the Bravo, Janus or 16-channel Matrix multi-channel pipette. The assay plate was then shaken for two minutes on an orbital shaker at 900 rpm (rotations per minute). Next the plate was incubated for 15 minutes at 37° C. The reaction was stopped by adding 25 μL of 3× (30 μM) developer/stop solution to the assay plates using either the Bravo, Janus or a 16-channel Matrix multi-channel pipette. Assay plates were then shaken for 5 minutes on an orbital shaker at 1200 rpm. Next, the assay plates were incubated at 37° C. for 1 hour in a tissue culture incubator. […]

[3] = system: Cellular Class I HDAC activity; assay: Inhibition of cellular Class I HDAC activity; Cell (Lys-Ac) substrate, Jurkat E6-1 cells; type: cell-based; conditions: Boc-Lys(Ac)-AMC substrate
Description: as §1, §2, §4, §5, §6, §7, §8
Example 30: Analysis of Inhibition of Cellular Class I HDAC Activity with Class IIa Histone Deacetylase (HDAC) Inhibitors; Cell (Lys-Ac) Substrate
The Class I HDAC activity of Class IIa Histone Deacetylase (HDAC) inhibitors was quantified by measuring the cellular histone deacetylase enzymatic activity using the fluorogenic substrate, Boc-Lys(Ac)-AMC. This was performed according to the procedure in Example 29, using Boc-Lys(Ac)-AMC substrate in place of Boc-Lys(TFA)-AMC.

IC50 [1] | IC50 [2] | IC50 [3] | Structure (SMILES)
150 nM | 22 nM | 7800 nM | C[C@H](CN1CC2CCCC21)NC(=O)c1ccc(-c2noc(C(F)(F)F)n2)cc1 (single isomer, unassigned) [Example 20]
180 nM | 16 nM | 7700 nM | C[C@H](CN1CCC12CCC2)NC(=O)c1ccc(-c2noc(C(F)(F)F)n2)cc1 [Example 14, (R)—N-(1-(1-Azaspiro[3.3]heptan-1-yl)propan-2-yl)-4-(5-(trifluoromethyl)-1,2,4-oxadiazol-3-yl)benzamide]
12 nM | 7 nM | 890 nM | C[C@H](CN1CC2CCC(C2)C1)NC(=O)c1ccc(-c2noc(C(F)(F)F)n2)cc1 [Example 16, N-((2R)-1-(3-Azabicyclo[3.2.1]octan-3-yl)propan-2-yl)-4-(5-(trifluoromethyl)-1,2,4-oxadiazol-3-yl)benzamide]
57 nM | 21 nM | 3700 nM | C[C@H](CN1CCCC(OC(F)F)C1)NC(=O)c1ccc(-c2noc(C(F)(F)F)n2)cc1 (single isomer, unassigned) [Example 9]

The next lines start with the compound.

Structure (SMILES) | IC50 [1] | IC50 [2] | IC50 [3]
C[C@H](CN1CCc2ccncc2C1)NC(=O)c1ccc(-c2noc(C(F)(F)F)n2)cc1 [Example 18, (R)—N-(1-(3,4-dihydro-2,7-naphthyridin-2(1H)-yl)propan-2-yl)-4-(5-(trifluoromethyl)-1,2,4-oxadiazol-3-yl)benzamide] | 190 nM | 6 nM | 12700 nM
C[C@H](CN1Cc2ccccc2C1)NC(=O)c1ccc(-c2noc(C(F)(F)F)n2)cc1 [Example 3, (R)—N-(1-(Isoindolin-2-yl)propan-2-yl)-4-(5-(trifluoromethyl)-1,2,4-oxadiazol-3-yl)benzamide] | 140 nM | 39 nM | 4900 nM
C[C@H](CN1CCC[C@@H]1C)NC(=O)c1ccc(-c2noc(C(F)(F)F)n2)c(F)c1 [Example 23, (2S)-1-((R)-2-(3-Fluoro-4-(5-(trifluoromethyl)-1,2,4-oxadiazol-3-yl)benzamido)propyl)-2-methylpyrrolidin-1-ium formate] | 72 nM | 9 nM | 21400 nM
C[C@H](CN1CCCC2(CC2)C1)NC(=O)c1ccc(-c2noc(C(F)(F)F)n2)cc1 [Example 11, (R)—N-(1-(5-Azaspiro[2.5]octan-5-yl)propan-2-yl)-4-(5-(trifluoromethyl)-1,2,4-oxadiazol-3-yl)benzamide] | 9 nM | 3 nM | 970 nM
C[C@H](CN1CCC2(CC2)C1)NC(=O)c1ccc(-c2noc(C(F)(F)F)n2)cc1 [Example 15, (R)—N-(1-(5-Azaspiro[2.4]heptan-5-yl)propan-2-yl)-4-(5-(trifluoromethyl)-1,2,4-oxadiazol-3-yl)benzamide] | 69 nM | 8 nM | 5100 nM
Cc1cc(C(=O)N[C@H](C)CN2CCC[C@@H]2C)ccc1-c1noc(C(F)(F)F)n1 [Example 1, (2S)-2-Methyl-1-((R)-2-(3-methyl-4-(5-(trifluoromethyl)-1,2,4-oxadiazol-3-yl)benzamido)propyl)pyrrolidin-1-ium formate] | 1600 nM | 100 nM | > 50000 nM
C[C@H](CN1CC(c2ccccc2)C1)NC(=O)c1ccc(-c2noc(C(F)(F)F)n2)cc1 [Example 8, (R)—N-(1-(3-Phenylazetidin-1-yl)propan-2-yl)-4-(5-(trifluoromethyl)-1,2,4-oxadiazol-3-yl)benzamide] | 39 nM | 14 nM | 710 nM
